2 compounds from BindingDB's records for doi:10.1016/s0960-894x(98)00596-4 (University of Connecticut, 1999) can be followed below.

Test [1] can be described thus: Inhibitory activity against alpha-L-fucosidase in bovine kidney; Competitive Inhibition type.
Test [2] can be described thus: Inhibitory activity against alpha-L-fucosidase in bovine epididymis at PH of 6.5; Competitive Inhibition type. The following applies: pH 6.5.
Test [3] in a line: Inhibitory activity against alpha-L-fucosidase in bovine kidney at PH of 6.5; Mixed Inhibition type. The following applies: pH 6.5.

Each structure is given as a SMILES string.

Usually Ki stands for a dissociation constant, usually derived from enzyme kinetics or from competition with a known ligand. Turning to `O[C@H]1[C@H](O)[C@H](O)O[C@@H](CS)[C@H]1O` [(2R,3S,4R,5S,6R)-6-Mercaptomethyl-tetrahydro-pyran-2,3,4,5-tetraol], the Ki in test [1] was found to be 42 µM. This counts as double-digit micromolar.
Consider `CC(=O)NCSC1OC(C)C(O)C(O)C1O` (stereo not drawn) [N-(3,4,5-Trihydroxy-6-methyl-tetrahydro-pyran-2-ylsulfanylmethyl)-acetamide], for which the values for the Ki in test [2] and in test [3] were 5.6 µM and 4.6 µM, respectively.
